Assay results from paper PMC10641818, “Development of First-in-Class Dual Sirt2/HDAC6 Inhibitors as Molecular Tools for Dual Inhibition of Tubulin Deacetylation” (Journal of Medicinal Chemistry, 2023).

Legend:
Sirt1 = target: T1, Sirt1 (Homo sapiens, UniProt Q96EB6); experiment: Sirt1 in vitro deacetylation assay (ZMAL); type: biochemical
T1 construct: the respective sirtuin (Sirt1_134–747, Sirt2_56–356, or Sirt3_118–395) was mixed with; made in house; host or cells: Escherichia coli BL21 Star (DE3)
T1 sequence (Q96EB6 134-747): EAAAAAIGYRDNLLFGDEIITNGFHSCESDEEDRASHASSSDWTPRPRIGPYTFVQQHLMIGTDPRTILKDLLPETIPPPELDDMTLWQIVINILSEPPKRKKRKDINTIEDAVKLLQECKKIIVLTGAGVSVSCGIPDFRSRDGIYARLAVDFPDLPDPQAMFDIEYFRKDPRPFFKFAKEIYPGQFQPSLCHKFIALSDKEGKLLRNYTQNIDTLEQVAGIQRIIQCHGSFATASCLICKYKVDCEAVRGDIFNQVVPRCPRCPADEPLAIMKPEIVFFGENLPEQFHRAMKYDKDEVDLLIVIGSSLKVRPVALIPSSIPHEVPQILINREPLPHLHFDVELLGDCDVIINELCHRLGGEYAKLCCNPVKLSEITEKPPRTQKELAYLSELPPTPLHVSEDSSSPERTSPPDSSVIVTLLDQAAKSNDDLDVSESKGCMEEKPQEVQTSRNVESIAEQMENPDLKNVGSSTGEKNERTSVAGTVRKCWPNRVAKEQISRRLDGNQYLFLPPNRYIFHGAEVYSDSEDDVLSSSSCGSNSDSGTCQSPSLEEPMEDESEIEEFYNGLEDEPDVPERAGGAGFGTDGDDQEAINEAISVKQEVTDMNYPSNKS

[1] = system: MCF-7 breast cancer cells; experiment: Cell viability assay (MTT) MCF-7; type: cell-based; details: Homo sapiens, MCF7, 72 h
Method in brief: (§1)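 HGC27 and PC-3M-luc cells (2000/well) were read by MTS after compound in 0.5% DMSO. W1 (10^4/well) and MCF-7 (2 × 10^3/well) were given half-log dilutions for 72 h, then MTT for 1 h, with absorbance at 570 nm minus 690 nm. Viability was fitted to a four-parameter logistic curve.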

[2] = system: PC-3M-luc prostate cancer cells; experiment: Cell viability assay (MTS) PC-3M-luc; type: cell-based; details: 72 h
Method in brief: as §1

HDAC6 = target: T2, HDAC6 (Homo sapiens, UniProt Q9UBN7); experiment: HDAC6 in vitro deacetylation assay (ZMAL); type: biochemical; set-up: purchased BPS Bioscience 50006
T2 sequence (Q9UBN7 1-1215): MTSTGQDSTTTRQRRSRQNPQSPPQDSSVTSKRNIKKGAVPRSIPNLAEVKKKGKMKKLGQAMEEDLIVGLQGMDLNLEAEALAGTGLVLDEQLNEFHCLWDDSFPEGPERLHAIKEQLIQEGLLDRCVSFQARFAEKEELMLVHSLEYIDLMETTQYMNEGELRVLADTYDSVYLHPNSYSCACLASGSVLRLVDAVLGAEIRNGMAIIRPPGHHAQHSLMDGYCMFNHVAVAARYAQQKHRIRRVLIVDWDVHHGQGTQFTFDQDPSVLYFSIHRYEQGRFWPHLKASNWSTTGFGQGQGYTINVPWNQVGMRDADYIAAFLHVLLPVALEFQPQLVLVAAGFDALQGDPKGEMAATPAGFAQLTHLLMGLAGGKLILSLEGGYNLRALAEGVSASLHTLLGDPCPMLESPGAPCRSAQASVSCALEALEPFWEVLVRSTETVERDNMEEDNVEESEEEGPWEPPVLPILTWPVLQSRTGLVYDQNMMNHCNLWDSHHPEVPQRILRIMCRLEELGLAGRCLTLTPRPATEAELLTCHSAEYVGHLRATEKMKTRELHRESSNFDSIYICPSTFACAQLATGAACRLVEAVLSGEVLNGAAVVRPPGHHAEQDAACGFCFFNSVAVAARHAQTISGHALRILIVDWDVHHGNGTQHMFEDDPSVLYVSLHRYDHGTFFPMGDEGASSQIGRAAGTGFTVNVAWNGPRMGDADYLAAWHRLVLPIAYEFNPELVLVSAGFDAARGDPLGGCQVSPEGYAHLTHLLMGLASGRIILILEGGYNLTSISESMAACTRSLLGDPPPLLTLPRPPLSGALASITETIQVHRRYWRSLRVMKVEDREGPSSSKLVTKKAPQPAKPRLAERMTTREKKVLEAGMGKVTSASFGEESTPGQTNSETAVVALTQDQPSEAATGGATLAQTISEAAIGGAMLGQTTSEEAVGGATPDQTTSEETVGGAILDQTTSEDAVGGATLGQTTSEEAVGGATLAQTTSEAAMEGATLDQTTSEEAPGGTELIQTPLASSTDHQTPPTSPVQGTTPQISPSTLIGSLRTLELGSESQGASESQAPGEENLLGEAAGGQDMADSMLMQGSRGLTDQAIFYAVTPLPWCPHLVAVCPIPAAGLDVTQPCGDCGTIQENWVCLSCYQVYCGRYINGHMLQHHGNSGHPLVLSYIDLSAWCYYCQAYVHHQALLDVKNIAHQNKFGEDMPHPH

## Cc1cc(C)nc(SCC(=O)Nc2ncc(Cc3cccc(OCc4cn(Cc5ccccc5)nn4)c3)s2)n1 [Compound 4, SirReal1.1, reference compound]
Sirt1
  inhibition at 20 µM: < 15%
[1]; @ 0.1 mM, read-out: MCF-7 percentual inhibition
  inhibition at 100 µM: 3%
[2]; @ 50 μM
  PC-3M-luc cellular effect: ni ^b (ni = no inhibition (cellular effect <20% @ 50 μM))
HDAC6; @ 10 μM, read-out: HDAC6 percentual inhibition
  inhibition at 10 µM: 18%

## CCCCN(Cc1ccc(C(=O)NO)cc1)C(=O)CCCCn1cc(COc2cccc(Cc3cnc(NC(=O)CSc4nc(C)cc(C)n4)s3)c2)nn1 [Compound 33, 4-((N-Butyl-5-(4-((3-((2-(2-((4,6-dimethylpyrimidin-2-yl)thio)acetamido)thiazol-5-yl)methyl)phenoxy)methyl)-1H-1,2,3-triazol-1-yl)pentanamido)methyl)-N-hydroxybenzamide]
Sirt1
  inhibition at 20 µM: < 15%
[1]; MTT, mean ± SD
  EC50: 21.1 ± 6.7 µM
[2]; PC-3M-luc, read-out: PC-3M-luc cell viability EC50, MTS, mean ± SD
  EC50: 30.1 ± 3.8 µM
HDAC6; deacetylation, mean ± SD
  IC50: 0.043 ± 0.003 µM
